Results taken from patent publication US8952157B2, “Apoptosis-inducing agents for the treatment of cancer and immune and autoimmune diseases” (AbbVie Inc., priority 2008, dated 2015).

target: GST-Bcl-2 (Homo sapiens (Human), UniProt P10415); assay: Time Resolved-Fluorescence Resonance Energy Transfer (TR-FRET) Bcl-2 binding assay; conditions: not given
Protocol: Determination of the utility of compounds having Formula (I) as binders to and inhibitors of anti-apoptotic Bcl-2 proteins was performed using the Time Resolved-Fluorescence Resonance Energy Transfer (TR-FRET) Assay. Tb-anti-GST antibody was purchased from Invitrogen (Catalog No. PV4216).
(§1) Representative compounds were serially diluted in dimethyl sulfoxide (DMSO) starting at 50 μM (2× starting concentration; 10% DMSO) and 10 μL were transferred into a 384-well plate. The samples are then mixed on a shaker for 1 minute and incubated for an additional 3 hours at room temperature. For each assay, the probe/antibody and protein/probe/antibody were included on each assay plate as negative and positive controls, respectively. Fluorescence was measured on the Envision (Perkin Elmer) using a 340/35 nm excitation filter and 520/525 (F-Bak peptide) and 495/510 nm (Tb-labeled anti-Histidine antibody) emission filters.
as §1, with “The” for “Representative compounds were serially diluted in dimethyl sulfoxide (DMSO) starting at 50 μM (2× starting concentration; 10% DMSO) and 10 μL were transferred into a 384-well plate. The”, “were” for “are”
The inhibition constant (Ki) is the dissociation constant of an enzyme-inhibitor complex or a protein/small molecule complex, wherein the small molecule is inhibiting binding of one protein to another protein. So a large Ki value indicates a low binding affinity and a small Ki value indicates a high binding affinity.

Sequence of GST-Bcl-2 (P10415 whole entry): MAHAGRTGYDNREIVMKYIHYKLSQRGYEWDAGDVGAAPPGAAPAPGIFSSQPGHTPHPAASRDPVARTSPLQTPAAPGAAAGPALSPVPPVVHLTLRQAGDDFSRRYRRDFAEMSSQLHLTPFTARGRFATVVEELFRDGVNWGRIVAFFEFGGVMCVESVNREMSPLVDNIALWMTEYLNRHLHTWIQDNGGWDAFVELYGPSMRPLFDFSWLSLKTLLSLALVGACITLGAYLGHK

Row | Structure (SMILES) | Ki [nM]
1 | CC1(C)CCC(CN2CCN(c3ccc(C(=O)NS(=O)(=O)c4ccc(N[C@H]5CC[C@H](N6CCOCC6)CC5)c([N+](=O)[O-])c4)c(Oc4cccc5c4CCNC5=O)c3)CC2)=C(c2ccc(Cl)cc2)C1 [Example 304, Trans-4-(4-{[2-(4-chlorophenyl)-4,4-dimethylcyclohex-1-en-1-yl]methyl}piperazin-1-yl)-N-({4-[(4-morpholin-4-ylcyclohexyl)amino]-3-nitrophenyl}sulfonyl)-2-[(1-oxo-1,2,3,4-tetrahydroisoquinolin-5-yl)oxy]benzamide] | 0.822

same assay, conditions: GST-Bcl-2 1 nM, F-Bak peptide probe 100 nM, Tb-anti-GST antibody 1 nM; Ki by Wang's equation

Row | Structure (SMILES) | Ki [nM]
2 | CN1CCN(CCCNc2ccc(S(=O)(=O)NC(=O)c3ccc(N4CCN(CC5=C(c6ccc(Cl)cc6)CC(C)(C)CC5)CC4)cc3Oc3cccc(Cl)c3)cc2[N+](=O)[O-])CC1 [Example 143, 2-(3-chlorophenoxy)-4-(4-{[2-(4-chlorophenyl)-4,4-dimethylcyclohex-1-en-1-yl]methyl}piperazin-1-yl)-N-[(4-{[3-(4-methylpiperazin-1-yl)propyl]amino}-3-nitrophenyl)sulfonyl]benzamide] | 0.053
3 | CN1CCC(Nc2ccc(S(=O)(=O)NC(=O)c3ccc(N4CCN(CC5=C(c6ccc(Cl)cc6)CC(C)(C)CC5)CC4)cc3Oc3ccccc3Cl)cc2[N+](=O)[O-])CC1 [Example 34, 2-(2-chlorophenoxy)-4-(4-((2-(4-chlorophenyl)-4,4-dimethylcyclohex-1-en-1-yl)methyl)piperazin-1-yl)-N-((4-((1-methylpiperidin-4-yl)amino)-3-nitrophenyl)sulfonyl)benzamide] | 0.049
4 | O=C(NS(=O)(=O)c1ccc(NCCCN2CCOCC2)c([N+](=O)[O-])c1)c1ccc(N2CCN(Cc3ccccc3-c3ccc(Cl)cc3)CC2)cc1Oc1cccc(Cl)c1 [Example 12, 4-(4-((4′-chloro-1,1′-biphenyl-2-yl)methyl)piperazin-1-yl)-2-(3-chlorophenoxy)-N-((4-((3-morpholin-4-ylpropyl)amino)-3-nitrophenyl)sulfonyl)benzamide] | 0.331
5 | CC1(C)CCC(CN2CCN(c3ccc(C(=O)NS(=O)(=O)c4ccc(NC5CCN(C6CCOCC6)CC5)c([N+](=O)[O-])c4)c(Oc4cc5cc[nH]c5cc4F)c3)CC2)=C(c2ccc(Cl)cc2)C1 [Example 193, 4-(4-{[2-(4-chlorophenyl)-4,4-dimethylcyclohex-1-en-1-yl]methyl}piperazin-1-yl)-2-[(6-fluoro-1H-indol-5-yl)oxy]-N-({3-nitro-4-[(1-tetrahydro-2H-pyran-4-ylpiperidin-4-yl)amino]phenyl}sulfonyl)benzamide] | 0.064
6 | CN1CCC(Nc2ccc(S(=O)(=O)NC(=O)c3ccc(N4CCN(CC5=C(c6ccc(Cl)cc6)CC(C)(C)CC5)CC4)cc3OCc3csc(NC(=O)OC(C)(C)C)n3)cc2[N+](=O)[O-])CC1 [Example 222, tert-butyl 4-[(5-(4-{[2-(4-chlorophenyl)-4,4-dimethylcyclohex-1-en-1-yl]methyl}piperazin-1-yl)-2-{[({4-[(1-methylpiperidin-4-yl)amino]-3-nitrophenyl}sulfonyl)amino]carbonyl}phenoxy)methyl]-1,3-thiazol-2-ylcarbamate] | > 1200
7 | O=C(NS(=O)(=O)c1ccc(NCCCN2CCOCC2)c([N+](=O)[O-])c1)c1ccc(N2CCN(Cc3ccccc3-c3ccc(Cl)cc3)CC2)cc1Oc1cccc(CO)c1 [Example 9, 4-(4-((4′-chloro-1,1′-biphenyl-2-yl)methyl)piperazin-1-yl)-2-(3-(hydroxymethyl)phenoxy)-N-((4-((3-morpholin-4-ylpropyl)amino)-3-nitrophenyl)sulfonyl)benzamide] | 0.754
8 | CN(C)C1CCC(Nc2ccc(S(=O)(=O)NC(=O)c3ccc(N4CCN(CC5=C(c6ccc(Cl)cc6)CC(C)(C)CC5)CC4)cc3Oc3cccc(Cl)c3)cc2[N+](=O)[O-])CC1 (stereo not drawn) [Example 203, 2-(3-chlorophenoxy)-4-(4-{[2-(4-chlorophenyl)-4,4-dimethylcyclohex-1-en-1-yl]methyl}piperazin-1-yl)-N-[(4-{[4-(dimethylamino)cyclohexyl]amino}-3-nitrophenyl)sulfonyl]benzamide] | 0.084
9 | CN(C)CCCNc1ccc(S(=O)(=O)NC(=O)c2ccc(N3CCN(Cc4ccccc4-c4ccc(Cl)cc4)CC3)cc2Oc2cccc(Cl)c2)cc1[N+](=O)[O-] [Example 14, 4-(4-((4′-chloro-1,1′-biphenyl-2-yl)methyl)piperazin-1-yl)-2-(3-chlorophenoxy)-N-((4-((3-(dimethylamino)propyl)amino)-3-nitrophenyl)sulfonyl)benzamide] | 0.079
10 | CC1(C)CCC(CN2CCN(c3ccc(C(=O)NS(=O)(=O)c4ccc(OCC5COCCO5)c([N+](=O)[O-])c4)c(Oc4cc5cc[nH]c5cc4Cl)c3)CC2)=C(c2ccc(Cl)cc2)C1 (stereo not drawn) [Example 290, 2-[(6-chloro-1H-indol-5-yl)oxy]-4-(4-{[2-(4-chlorophenyl)-4,4-dimethylcyclohex-1-en-1-yl]methyl}piperazin-1-yl)-N-{[4-(1,4-dioxan-2-ylmethoxy)-3-nitrophenyl]sulfonyl}benzamide] | 0.251
11 | CC(C)(C)OC(=O)N1CCN(c2cccc(Oc3cc(N4CCN(Cc5ccccc5-c5ccc(Cl)cc5)CC4)ccc3C(=O)NS(=O)(=O)c3ccc(NCC4CCOCC4)c([N+](=O)[O-])c3)c2)CC1 [Example 91, tert-butyl 4-(3-(5-(4-((4′-chloro-1,1′-biphenyl-2-yl)methyl)piperazin-1-yl)-2-((((3-nitro-4-((tetrahydro-2H-pyran-4-ylmethyl)amino)phenyl)sulfonyl)amino)carbonyl)phenoxy)phenyl)piperazine-1-carboxylate] | > 1200
12 | CC1(C)CCC(CN2CCN(c3ccc(C(=O)NS(=O)(=O)c4ccc(NC5CCN(CCCc6ccccc6)CC5)c([N+](=O)[O-])c4)c(Oc4cccc(Cl)c4)c3)CC2)=C(c2ccc(Cl)cc2)C1 [Example 172, 2-(3-chlorophenoxy)-4-(4-{[2-(4-chlorophenyl)-4,4-dimethylcyclohex-1-en-1-yl]methyl}piperazin-1-yl)-N-[(3-nitro-4-{[1-(3-phenylpropyl)piperidin-4-yl]amino}phenyl)sulfonyl]benzamide] | 0.549
13 | CC1(C)CCC(CN2CCN(c3ccc(C(=O)NS(=O)(=O)c4ccc(NC5CCN(C6CC6)CC5)c([N+](=O)[O-])c4)c(Oc4cccc(Cl)c4)c3)CC2)=C(c2ccc(Cl)cc2)C1 [Example 119, 2-(3-chlorophenoxy)-4-(4-{[2-(4-chlorophenyl)-4,4-dimethylcyclohex-1-en-1-yl]methyl}piperazin-1-yl)-N-({4-[(1-cyclopropylpiperidin-4-yl)amino]-3-nitrophenyl}sulfonyl)benzamide] | 0.156
14 | CN1CCC(Nc2ccc(S(=O)(=O)NC(=O)c3ccc(N4CCN(CC5=C(c6ccc(Cl)cc6)CC(C)(C)CC5)CC4)cc3Oc3cccc(F)c3)cc2[N+](=O)[O-])CC1 [Example 112, 4-(4-{[2-(4-chlorophenyl)-4,4-dimethylcyclohex-1-en-1-yl]methyl}piperazin-1-yl)-2-(3-fluorophenoxy)-N-({4-[(1-methylpiperidin-4-yl)amino]-3-nitrophenyl}sulfonyl)benzamide] | 0.042
15 | CC1(C)CCC(CN2CCN(c3ccc(C(=O)NS(=O)(=O)c4ccc(NCC5CCOCC5)c([N+](=O)[O-])c4)c(Oc4ccc(NC5CC5)nc4)c3)CC2)=C(c2ccc(Cl)cc2)C1 [Example 374, 4-(4-{[2-(4-chlorophenyl)-4,4-dimethylcyclohex-1-en-1-yl]methyl}piperazin-1-yl)-2-{[6-(cyclopropylamino)pyridin-3-yl]oxy}-N-({3-nitro-4-[(tetrahydro-2H-pyran-4-ylmethyl)amino]phenyl}sulfonyl)benzamide] | 5.34
16 | CN1CCC(Nc2ccc(S(=O)(=O)NC(=O)c3ccc(N4CCN(CC5=C(c6ccc(Cl)cc6)CC(C)(C)OC5)CC4)cc3Oc3ccccc3Cl)cc2[N+](=O)[O-])CC1 [Example 38, 2-(2-chlorophenoxy)-4-(4-((4-(4-chlorophenyl)-6,6-dimethyl-5,6-dihydro-2H-pyran-3-yl)methyl)piperazin-1-yl)-N-((4-((1-methylpiperidin-4-yl)amino)-3-nitrophenyl)sulfonyl)benzamide] | 0.013
17 | COCCNc1ccc(S(=O)(=O)NC(=O)c2ccc(N3CCN(CC4=C(c5ccc(Cl)cc5)CC(C)(C)CC4)CC3)cc2Oc2cccc3c2CC(=O)N3)cc1[N+](=O)[O-] [Example 321, 4-(4-{[2-(4-chlorophenyl)-4,4-dimethylcyclohex-1-en-1-yl]methyl}piperazin-1-yl)-N-({4-[(2-methoxyethyl)amino]-3-nitrophenyl}sulfonyl)-2-[(2-oxo-2,3-dihydro-1H-indol-4-yl)oxy]benzamide] | 0.029
18 | CN(C)Cc1cccc(Oc2cc(N3CCN(Cc4ccccc4-c4ccc(Cl)cc4)CC3)ccc2C(=O)NS(=O)(=O)c2ccc(NCC3CCOCC3)c([N+](=O)[O-])c2)c1 [Example 1, 4-(4-((4′-chloro-1,1′-biphenyl-2-yl)methyl)piperazin-1-yl)-2-(3-((dimethylamino)methyl)phenoxy)-N-((3-nitro-4-((tetrahydro-2H-pyran-4-ylmethyl)amino)phenyl)sulfonyl)benzamide] | 8.35
